The record followed here is article PMC3885546, “Structural Determinants of the 5′-Methylthioinosine Specificity of Plasmodium Purine Nucleoside Phosphorylase” (PLoS ONE, 2014).

Common to all, as to experiment: Substrate kinetics, coupled assay
Holding throughout (assay type): biochemical

In one assay the target is T1, PfPNP Val66Ala (Plasmodium falciparum, UniProt Q8I3X4, V66A).
T1 construct: made in house; host or cells: Escherichia coli Top 10
T1 sequence (Q8I3X4 1-245 V66A): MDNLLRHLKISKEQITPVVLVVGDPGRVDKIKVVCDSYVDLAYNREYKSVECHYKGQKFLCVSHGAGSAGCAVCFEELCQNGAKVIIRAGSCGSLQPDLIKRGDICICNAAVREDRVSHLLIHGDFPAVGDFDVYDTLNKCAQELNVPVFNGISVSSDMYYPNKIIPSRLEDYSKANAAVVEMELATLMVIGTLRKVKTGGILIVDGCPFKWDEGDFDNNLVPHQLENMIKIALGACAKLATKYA
The following applies: for Km / kcat: substrate = label. As to the method: (§1) Kinetic assays were completed in 50 mM KH2PO4 at pH 7.4 measuring phosphorylysis of inosine or MTI by PNP in a coupled reaction with 60 milliunits/ml xanthine oxidase to convert hypoxanthine to uric acid. Formation of uric acid was measured at 293 nm wavelength (E293 = 12.9 mM^−1 cm^−1), [20]. In cases where activity for MTI was low, increased protein concentration (10 µg/ml) was used to check enzyme function. Assays were performed with excess substrate in the presence of inhibitors. Inhibition studies measured both initial (Ki) and slow onset inhibition (Ki*) for inhibitors. The initial onset inhibition was analyzed by using the following equation: ν ο = (k cat×S)/(K m(1+I/Ki)+S), ν ο is the steady state rate, k cat catalytic rate, S is substrate concentration, Km is Michealis constant for inosine, I is inhibitor concentration, and Ki is the equilibrium dissociation constant.

Another assay deals with T2, PfPNP His7Ser (Plasmodium falciparum, UniProt Q8I3X4, H7S).
T2 construct: made in house; host or cells: Escherichia coli Top 10
T2 sequence (Q8I3X4 1-245 H7S): T1 sequence (Q8I3X4 1-245 V66A) with H7S, A66V
The following applies: for Km / kcat: substrate = label. The procedure:
as §1

The target in another assay is T3, PfPNP V66I/V73I/Y160F (Plasmodium falciparum, UniProt Q8I3X4, V66I/V73I/Y160F).
T3 construct: made in house; host or cells: Escherichia coli Top 10
T3 sequence (Q8I3X4 1-245 V66I/V73I/Y160F): T1 sequence (Q8I3X4 1-245 V66A) with A66I, V73I, Y160F
To be noted: for Ino/MTI kcat/Km Ratio / Km / kcat: V66I/V73I/Y160F PfPNP; for Km / kcat: substrate = label. As to the method: as §1

For a further assay, the target named is T4, PfPNP Val66Ile (Plasmodium falciparum, UniProt Q8I3X4, V66I).
T4 construct: made in house; host or cells: Escherichia coli Top 10
T4 sequence (Q8I3X4 1-245 V66I): T1 sequence (Q8I3X4 1-245 V66A) with A66I
The procedure: as §1

For a further assay, the target named is T5, PfPNP Val66Ser (Plasmodium falciparum, UniProt Q8I3X4, V66S).
T5 construct: made in house; host or cells: Escherichia coli Top 10
T5 sequence (Q8I3X4 1-245 V66S): T1 sequence (Q8I3X4 1-245 V66A) with A66S
To be noted: for Km / kcat: substrate = label. The procedure: as §1

The next assay has as its target T6, PfPNP Tyr160Ala (Plasmodium falciparum, UniProt Q8I3X4, Y160A).
T6 construct: made in house; host or cells: Escherichia coli Top 10
T6 sequence (Q8I3X4 1-245 Y160A): T1 sequence (Q8I3X4 1-245 V66A) with A66V, Y160A
To be noted: for Km / kcat / reduced catalytic efficiency compared to wild-type PfPNP: substrate = label. As to the method: as §1

A further assay has as its target T7, PfPNP Val73Ser (Plasmodium falciparum, UniProt Q8I3X4, V73S).
T7 construct: made in house; host or cells: Escherichia coli Top 10
T7 sequence (Q8I3X4 1-245 V73S): T1 sequence (Q8I3X4 1-245 V66A) with A66V, V73S
The following applies: for Km / kcat: substrate = label. As to the method:
as §1

Where [1] appears, read: V66I:V73I:Y160F PfPNP versus wild type.

Changes are numbered by the printed parent chain.

Regarding 5′-methylthioinosine, the Km at PfPNP Val66Ala turned out to be 0.3 ± 0.4 µM; at PfPNP His7Ser, 3.2 ± 2.7 µM; on PfPNP V66I/V73I/Y160F it was 18 ± 6 µM; on PfPNP Val66Ser, 0.7 ± 0.7 µM; on PfPNP Tyr160Ala it was 200 ± 59 µM; at PfPNP Val73Ser, 2100 µM. The kcat came out at 0.12 ± 0.04 s⁻¹ at PfPNP Val66Ala; 0.88 ± 0.30 s⁻¹ at PfPNP His7Ser; 0.01 ± 0.00 s⁻¹ on PfPNP V66I/V73I/Y160F; 1.2 ± 0.7 s⁻¹ at PfPNP Val66Ile (substrate = label); 0.21 ± 0.05 s⁻¹ at PfPNP Val66Ser; 0.09 ± 0.01 s⁻¹ on PfPNP Tyr160Ala. In addition, the kcat on PfPNP Val73Ser was 0.02 ± 0 s⁻¹. Also, the “Ino/MTI kcat/Km Ratio” value on PfPNP V66I/V73I/Y160F was 160. Also, the decrease in kcat at PfPNP V66I/V73I/Y160F (setting [1]) is recorded as 83 fold. Moreover, the “increase in Km” value at PfPNP V66I/V73I/Y160F (setting [1]) is on record as 2 fold. For the same compound, at PfPNP Tyr160Ala, the “reduced catalytic efficiency compared to wild-type PfPNP” value is reported as approximately 1000 fold.
Turning to `OC[C@H]1O[C@@H](n2cnc3c(O)ncnc32)[C@H](O)[C@@H]1O` [Inosine, inosine], the “Ino/MTI kcat/Km Ratio” value is 0.5 on PfPNP Val66Ala; 0.1 at PfPNP His7Ser; 160 on PfPNP V66I/V73I/Y160F; 1.4 at PfPNP Val66Ile; 0.06 on PfPNP Val66Ser; 0.5 on PfPNP Tyr160Ala. Moreover, at PfPNP Val73Ser, the “Ino/MTI kcat/Km Ratio” value is listed as 4100. Further, the Km on PfPNP Val66Ala was determined as 13 ± 10 µM; at PfPNP His7Ser, 14 ± 3 µM; on PfPNP V66I/V73I/Y160F it was 4 ± 1.8 µM; on PfPNP Val66Ile (substrate = label), 16 ± 4 µM; on PfPNP Val66Ser, 78 ± 4 µM; at PfPNP Tyr160Ala, 5400 ± 120 µM. The Km on PfPNP Val73Ser was 5 µM. For the same compound, the kcat at PfPNP Val66Ala was determined as 2.4 ± 0.6 s⁻¹; on PfPNP His7Ser it was 0.5 ± 0.3 s⁻¹; at PfPNP V66I/V73I/Y160F, 0.36 ± 0.23 s⁻¹; at PfPNP Val66Ile (substrate = label), 2.0 ± 0.2 s⁻¹; at PfPNP Val66Ser it was 1.4 ± 1.7 s⁻¹; on PfPNP Tyr160Ala it was 0.1 ± 0.0 s⁻¹. Also, the catalytic constant (kcat) on PfPNP Val73Ser was 0.2 ± 0.0 s⁻¹. Moreover, the “reduced catalytic efficiency compared to wild-type PfPNP” value at PfPNP Tyr160Ala is recorded as approximately 1000 fold.

For orientation: Km means the concentration of substrate that gives half-maximal velocity. For orientation: kcat means the maximal rate divided by the concentration of active sites.
